Experimental findings from patent US10065990B2, “Cyclic peptide compound, and preparation method, pharmaceutical composition and use thereof” (HANGZHOU GUANYU BIO-MEDICAL CO., LTD, priority 2013, dated 2018) are described below.

Common to all, as to experiment: HDAC biochemical activity measurement (fluorescent substrate deacetylation)
Assay [1] addresses HDAC3 (Homo sapiens, UniProt O15379).
For assay [2], the target named is T1, HDAC11 (Homo sapiens, UniProt Q96DB2).
T1 sequence (Q96DB2 1-347): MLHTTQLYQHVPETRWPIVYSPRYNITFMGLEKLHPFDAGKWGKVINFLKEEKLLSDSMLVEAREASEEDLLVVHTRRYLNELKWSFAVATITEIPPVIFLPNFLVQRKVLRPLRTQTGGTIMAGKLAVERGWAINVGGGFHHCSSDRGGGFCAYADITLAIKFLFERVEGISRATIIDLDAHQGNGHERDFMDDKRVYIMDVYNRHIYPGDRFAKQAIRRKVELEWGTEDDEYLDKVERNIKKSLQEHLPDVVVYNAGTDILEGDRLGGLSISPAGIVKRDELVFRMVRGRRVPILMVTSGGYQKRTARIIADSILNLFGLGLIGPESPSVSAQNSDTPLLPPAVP

The target in assay [3] is T2, HDAC8 (Homo sapiens, UniProt Q9BY41).
T2 sequence (Q9BY41 1-377): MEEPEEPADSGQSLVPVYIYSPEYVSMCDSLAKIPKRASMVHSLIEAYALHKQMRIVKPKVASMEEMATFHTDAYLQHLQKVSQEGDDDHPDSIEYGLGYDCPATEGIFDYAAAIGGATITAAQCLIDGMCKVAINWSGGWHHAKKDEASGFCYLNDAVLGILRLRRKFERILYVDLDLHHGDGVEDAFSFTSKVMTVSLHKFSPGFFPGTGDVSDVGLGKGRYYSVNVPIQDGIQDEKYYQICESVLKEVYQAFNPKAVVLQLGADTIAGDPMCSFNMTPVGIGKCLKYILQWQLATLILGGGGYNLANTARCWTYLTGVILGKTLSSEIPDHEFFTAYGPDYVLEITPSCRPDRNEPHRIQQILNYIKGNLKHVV
As to conditions: 37° C. 30 minutes.

The target in assay [4] is T3, HDAC7 (Homo sapiens, UniProt Q8WUI4).
T3 sequence (Q8WUI4 1-952): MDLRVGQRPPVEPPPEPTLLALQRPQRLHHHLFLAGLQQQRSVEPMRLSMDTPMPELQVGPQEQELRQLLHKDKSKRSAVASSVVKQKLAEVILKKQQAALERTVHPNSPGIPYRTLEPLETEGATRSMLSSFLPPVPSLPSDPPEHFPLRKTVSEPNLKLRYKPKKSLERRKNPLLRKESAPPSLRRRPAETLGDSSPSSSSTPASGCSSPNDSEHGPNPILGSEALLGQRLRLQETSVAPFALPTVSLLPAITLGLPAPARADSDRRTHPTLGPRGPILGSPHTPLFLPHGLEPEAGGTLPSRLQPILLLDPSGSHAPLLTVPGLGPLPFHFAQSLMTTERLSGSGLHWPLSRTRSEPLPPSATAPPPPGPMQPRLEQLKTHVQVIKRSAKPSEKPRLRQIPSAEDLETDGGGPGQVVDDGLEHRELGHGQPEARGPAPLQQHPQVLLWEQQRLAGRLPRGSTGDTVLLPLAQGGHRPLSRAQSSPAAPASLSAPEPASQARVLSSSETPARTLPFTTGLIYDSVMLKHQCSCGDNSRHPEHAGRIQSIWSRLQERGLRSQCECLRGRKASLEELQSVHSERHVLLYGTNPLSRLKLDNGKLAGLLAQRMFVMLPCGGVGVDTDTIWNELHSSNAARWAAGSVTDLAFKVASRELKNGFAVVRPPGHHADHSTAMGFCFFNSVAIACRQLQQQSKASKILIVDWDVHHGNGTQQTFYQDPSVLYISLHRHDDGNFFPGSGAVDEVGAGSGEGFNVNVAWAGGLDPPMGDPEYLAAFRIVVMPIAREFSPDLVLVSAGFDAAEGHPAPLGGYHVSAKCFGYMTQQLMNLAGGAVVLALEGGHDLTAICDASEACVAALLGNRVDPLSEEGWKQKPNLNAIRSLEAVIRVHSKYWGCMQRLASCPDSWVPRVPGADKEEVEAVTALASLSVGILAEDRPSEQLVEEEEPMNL
Conditions: HDAC7; 37° C. 30 minutes.

Assay [5] deals with HDAC1 (Homo sapiens, UniProt Q13547).
Setting [6] is: read-out: IC50 HDAC3, HDAC3, 37° C. 30 minutes.
Where [7] appears, read: read-out: IC50 HDAC11, HDAC11, 37° C. 30 minutes.
Where [8] appears, read: HDAC1, 37° C. 30 minutes, read-out: IC50 HDAC1.
The mark [9] stands for this setting: Table 3, column C, read-out: IC50 HDAC1, C (six-membered ring with substituents).
The mark [10] stands for this setting: Table 3, read-out: IC50 HDAC1, D (non-substituent).
The mark [11] stands for this setting: Table 2, read-out: IC50 HDAC1, a (compounds of the present invention).

Molecules are shown by their SMILES. Like-named read-outs stand apart in the source and are kept apart here. A value given as a limit tells only on which side of the number the result lay.
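Throughout, for IC50 HDAC1, C (six-membered ring with substituents): fluorogenic acetyl-lysine substrate (20 µM) deacetylated by HDAC1, then developer releases fluorophore read at 360 nm excitation and 460 nm emission, inhibitor incubated 30 min at 37 °C.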
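Throughout, for IC50 HDAC1, D (non-substituent): fluorogenic acetyl-lysine substrate (20 µM) deacetylated by HDAC1, then developer releases fluorophore read at 360 nm excitation and 460 nm emission, inhibitor incubated 30 min at 37 °C.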
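Throughout, for IC50 HDAC1, a (compounds of the present invention): fluorogenic acetyl-lysine substrate (20 µM) deacetylated by HDAC1, then developer releases fluorophore read at 360 nm excitation and 460 nm emission, inhibitor incubated 30 min at 37 °C.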
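Throughout, for IC50 HDAC1: fluorogenic acetyl-lysine substrate (20 µM) deacetylated by HDAC1, then developer releases fluorophore read at 360 nm excitation and 460 nm emission, inhibitor incubated 30 min at 37 °C.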
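Throughout, for IC50 HDAC7: fluorogenic deacetylation assay using acetyl-lysine substrate at 20 µM, enzyme and compound incubated 30 min at 37 °C, then developer added, fluorescence read at 360/460 nm.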

HDAC3, sequence (O15379 whole entry, species assumed): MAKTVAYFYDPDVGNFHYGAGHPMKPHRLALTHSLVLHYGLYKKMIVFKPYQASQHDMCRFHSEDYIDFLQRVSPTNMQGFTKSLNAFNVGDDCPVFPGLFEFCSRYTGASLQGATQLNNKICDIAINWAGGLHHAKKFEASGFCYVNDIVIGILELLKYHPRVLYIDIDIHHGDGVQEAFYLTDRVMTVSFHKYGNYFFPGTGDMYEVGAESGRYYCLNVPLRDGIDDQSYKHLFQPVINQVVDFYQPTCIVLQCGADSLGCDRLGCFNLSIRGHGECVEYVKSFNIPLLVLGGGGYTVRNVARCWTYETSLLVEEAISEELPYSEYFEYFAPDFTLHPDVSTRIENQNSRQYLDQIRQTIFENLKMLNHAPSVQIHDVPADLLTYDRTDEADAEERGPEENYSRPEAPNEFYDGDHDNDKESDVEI
HDAC3, sequence (Q9Y618 395-489 partner limits assumed, species assumed): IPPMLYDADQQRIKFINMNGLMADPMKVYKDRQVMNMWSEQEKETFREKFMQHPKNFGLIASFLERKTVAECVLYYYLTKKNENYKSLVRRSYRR
HDAC1, sequence (Q13547 whole entry, species assumed): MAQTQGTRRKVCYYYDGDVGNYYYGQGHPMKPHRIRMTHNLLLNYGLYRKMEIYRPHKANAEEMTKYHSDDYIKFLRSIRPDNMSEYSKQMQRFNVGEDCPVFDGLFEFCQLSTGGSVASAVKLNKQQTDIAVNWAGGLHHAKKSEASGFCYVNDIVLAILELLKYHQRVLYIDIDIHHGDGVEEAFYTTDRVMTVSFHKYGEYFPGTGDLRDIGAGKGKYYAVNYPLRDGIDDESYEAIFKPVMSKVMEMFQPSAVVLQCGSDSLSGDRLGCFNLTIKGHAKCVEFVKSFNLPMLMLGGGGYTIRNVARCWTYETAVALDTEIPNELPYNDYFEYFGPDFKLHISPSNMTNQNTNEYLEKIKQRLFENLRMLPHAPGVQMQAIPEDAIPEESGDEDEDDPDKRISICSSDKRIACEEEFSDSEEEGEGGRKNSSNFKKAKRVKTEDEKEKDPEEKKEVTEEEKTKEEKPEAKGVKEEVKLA

Take `C/C=C1\NC(=O)c2cc(F)cc(n2)CNC(=O)C[C@@H](/C=C/CCSC(=O)CCCCCCC)OC(=O)[C@H](C)NC1=O` [Compound 61]: the IC50 (as a rule, the concentration needed to halve the response being measured) in assay [1] (setting [6]) was 38 nM; in assay [2] (setting [7]), 83 nM; in assay [3], 38 nM; in assay [5] (setting [8]), 13 nM; in assay [5] (setting [9]), 13 nM. Moreover, the “IC50 HDAC7” value in assay [4] was “no activity”.

Take `C/C=C1\NC(=O)c2cccc(n2)CNC(=O)C[C@@H](/C=C/CCSC(C)=O)OC(=O)[C@H](Cc2cccc3ccccc23)NC1=O` [Compound 17]: the IC50 was 69 nM in assay [1] (setting [6]); 97 nM in assay [2] (setting [7]); 81 nM in assay [3]; 176 nM in assay [5] (setting [8]); 176 nM in assay [5] (setting [10]). For the same compound, in assay [4], the “IC50 HDAC7” value is “no activity”.

On to `C/C=C1\NC(=O)c2ccc(F)c(n2)CNC(=O)C[C@@H](/C=C/CCSC(=O)CCCCCCC)OC(=O)[C@H](C)NC1=O` [Example 62], for which the IC50 stood at 37 nM in assay [1], 79 nM in assay [2], 37 nM in assay [3] and 46 nM in assay [5] (setting [8]). In addition, the “IC50 HDAC7” value in assay [4] is listed as “no activity”.

For `C/C=C1\NC(=O)c2cc(F)cc(n2)CNC(=O)C[C@@H](/C=C/CCSC(C)=O)OC(=O)[C@H](C(C)C)NC1=O` [Compound 94], the IC50 came to 28 nM in assay [1], 91 nM in assay [2], 28 nM in assay [3] and 42 nM in assay [5] (setting [8]). In addition, the “IC50 HDAC7” value in assay [4] is “no activity”.

As for `C/C=C1\NC(=O)c2cccc(n2)CNC(=O)C[C@@H](/C=C/CCSC=O)OC(=O)[C@H](C(C)C)NC1=O` [Compound 8], the IC50 in assay [1] amounted to 51 nM; in assay [2], 97 nM; in assay [3], 41 nM; in assay [5] (setting [8]), 153 nM; in assay [5] (setting [10]), 153 nM. Besides, in assay [4], the “IC50 HDAC7” value is listed as “no activity”.

`C/C=C1\NC(=O)c2nc(ccc2F)CNC(=O)C[C@@H](/C=C/CCSC(=O)CC)OC(=O)[C@H](C(C)C)NC1=O` [Example 45]: the IC50 was found to be 41 nM in assay [1], 92 nM in assay [2], 25 nM in assay [3] and 64 nM in assay [5] (setting [8]). The “IC50 HDAC7” value in assay [4] is “no activity”.

For the compound `C/C=C1\NC(=O)c2cccc(n2)CNC(=O)C[C@@H](/C=C/CCSC(=O)CCCCCCC)OC(=O)[C@H](C)NC1=O` [Compound 11], the IC50 is 45 nM in assay [1] (setting [6]); 81 nM in assay [2] (setting [7]); 71 nM in assay [3]; 29 nM in assay [5] (setting [8]); less than 30 nM in assay [5] (setting [11]); 29 nM in assay [5] (setting [10]). Further, the “IC50 HDAC7” value in assay [4] is “no activity”.

As for `C/C=C1\NC(=O)c2cccc(n2)CNC(=O)C[C@@H](/C=C/CCSC(C)=O)OC(=O)[C@H](Cc2ccccc2)NC1=O` [Compound 13], the IC50 in assay [1] (setting [6]) worked out at 337 nM; in assay [2] (setting [7]), 94 nM; in assay [3], 159 nM; in assay [5] (setting [8]), 187 nM; in assay [5] (setting [10]) it was 187 nM. Also, in assay [4], the “IC50 HDAC7” value was “no activity”.

In the case of `C/C=C1\NC(=O)c2cccc(n2)CNC(=O)C[C@@H](/C=C/CCSC(=O)CCCCCCC)OC(=O)[C@H](CC)NC1=O` [Compound 9], the IC50 is 34 nM in assay [1] (setting [6]); 101 nM in assay [2] (setting [7]); 49 nM in assay [3]; 45 nM in assay [5] (setting [8]); less than 50 nM in assay [5] (setting [11]); 45 nM in assay [5] (setting [10]). In addition, the “IC50 HDAC7” value in assay [4] is “no activity”.

As for `C/C=C1\NC(=O)c2cccc(n2)CNC(=O)C[C@@H](/C=C/CCSC(=O)CCCCCCC)OC(=O)[C@H](Cc2ccccc2)NC1=O` [Compound 14], the IC50 in assay [1] (setting [6]) was 43 nM; in assay [2] (setting [7]) it was 103 nM; in assay [3], 57 nM; in assay [5] (setting [8]), 94 nM; in assay [5] (setting [11]), less than 100 nM; in assay [5] (setting [10]), 94 nM. In addition, in assay [4], the “IC50 HDAC7” value was “no activity”.

Take `C/C=C1\NC(=O)c2nc(ccc2SC)CNC(=O)C[C@@H](/C=C/CCSC=O)OC(=O)[C@H](C(C)C)NC1=O` [Compound 168]: the IC50 in assay [1] was 34 nM; in assay [2], 99 nM; in assay [3] it was 13 nM; in assay [5] (setting [8]), 91 nM. Further, the “IC50 HDAC7” value in assay [4] is “no activity”.

As for `C/C=C1\NC(=O)c2nc(ccc2C)CNC(=O)C[C@@H](/C=C/CCSC(C)=O)OC(=O)[C@H](Cc2ccccc2)NC1=O` [Compound 66], the IC50 in assay [1] (setting [6]) was 31 nM; in assay [2] (setting [7]) it was 94 nM; in assay [3] it was 26 nM; in assay [5] (setting [8]), 41 nM; in assay [5] (setting [9]) it was 41 nM. For the same compound, the “IC50 HDAC7” value in assay [4] is “no activity”.

Turning to `C/C=C1\NC(=O)c2nc(ccc2F)CNC(=O)C[C@@H](/C=C/CCSC(C)=O)OC(=O)[C@H](C)NC1=O` [Example 63], the IC50 in assay [1] was 39 nM; in assay [2], 91 nM; in assay [3] it was 29 nM; in assay [5] (setting [8]) it was 41 nM. Besides, in assay [4], the “IC50 HDAC7” value is “no activity”.

On to `C/C=C1\NC(=O)c2cccc(n2)CNC(=O)C[C@@H](/C=C/CCSC(C)=O)OC(=O)[C@H](C)NC1=O` [Compound 12], for which the IC50 in assay [1] (setting [6]) worked out at 52 nM; in assay [2] (setting [7]), 91 nM; in assay [3], 38 nM; in assay [5] (setting [8]), 81 nM; in assay [5] (setting [10]) it was 81 nM. Further, the “IC50 HDAC7” value in assay [4] is “no activity”.

For `C/C=C1\NC(=O)c2nc(ccc2F)CNC(=O)C[C@@H](/C=C/CCSC(C)=O)OC(=O)[C@H](CCCCN)NC1=O` [Compound 72], the IC50 turned out to be 135 nM in assay [1] (setting [6]); 276 nM in assay [2] (setting [7]); 453 nM in assay [3]; 64 nM in assay [5] (setting [8]); 64 nM in assay [5] (setting [9]). For the same compound, in assay [4], the “IC50 HDAC7” value was “no activity”.

For the compound `C/C=C1\NC(=O)c2cc(F)cc(n2)CNC(=O)C[C@@H](/C=C/CCSC(C)=O)OC(=O)[C@H](CCCCNC(=O)OCC2c3ccccc3-c3ccccc32)NC1=O` [Compound 76], the IC50 in assay [1] (setting [6]) amounted to 42 nM; in assay [2] (setting [7]), 94 nM; in assay [3], 28 nM; in assay [5] (setting [8]) it was 51 nM; in assay [5] (setting [9]), 51 nM. In addition, the “IC50 HDAC7” value in assay [4] was “no activity”.

For the compound `C=C1NC(=O)c2cccc(n2)CNC(=O)C[C@@H](/C=C/CCSC(C)=O)OC(=O)[C@H](C(C)C)NC1=O` [Compound 19], the IC50 in assay [1] (setting [6]) came out at 39 nM; in assay [2] (setting [7]), 103 nM; in assay [3] it was 69 nM; in assay [5] (setting [8]) it was 179 nM; in assay [5] (setting [10]), 179 nM. Besides, in assay [4], the “IC50 HDAC7” value is listed as “no activity”.

In the case of `C/C=C1\NC(=O)c2cc(F)cc(n2)CNC(=O)C[C@@H](/C=C/CCSC(=O)CCCCCCC)OC(=O)[C@H](Cc2ccccc2)NC1=O` [Compound 70], the IC50 in assay [1] (setting [6]) turned out to be 24 nM; in assay [2] (setting [7]) it was 97 nM; in assay [3], 34 nM; in assay [5] (setting [8]), 33 nM; in assay [5] (setting [9]), 33 nM. Besides, the “IC50 HDAC7” value in assay [4] is recorded as “no activity”.
